Results from ChEMBL document CHEMBL1122963, “[3H]Batrachotoxinin A 20 alpha-benzoate binding to voltage-sensitive sodium channels: a rapid and quantitative assay for local anesthetic activity in a variety of drugs” (J Med Chem, 1985).

How the values were obtained:
[1] = target: T1, Sodium channel alpha subunits; brain (Types I, II, III) (Homo sapiens, UniProt P35498+Q99250+Q9NY46); test: Inhibition of binding of Batrachotoxinin [3H]BTX-B to high affinity sites on voltage dependent sodium channels in a vesicular preparation from guinea pig cerebral cortex; format: tissue-based, Cavia porcellus
[2] = target: T1, Sodium channel alpha subunits; brain (Types I, II, III); details: Cavia porcellus; Cerebral cortex; at 10 µM

Compound	IC50 [1]	inhibition [2]
CNCCC=C1c2ccccc2CCc2ccccc21 [NORTRIPTYLINE]	< 10 µM	69.4%
CC(C)NC[C@H](O)COc1cccc2ccccc12 [LEVOPROPRANOLOL]	13 µM	42.6%
CN(C)CC/C=C1/c2ccccc2Sc2ccc(Cl)cc21 [CHLORPROTHIXENE]	< 10 µM	55.2%
CCCNC(C)(C)COC(=O)c1ccccc1 [MEPRYLCAINE]	7.6 µM	57.6%
CCCCNc1ccc(C(=O)OCCN(C)C)cc1	–	72%
CCOc1ccc(C(=O)OCCN(CC)CC)cc1 [PARETHOXYCAINE]	24 µM	33.2%
CCCOc1cc(N)ccc1C(=O)OCCN(CC)CC [PROPOXYCAINE]	24 µM	30%
CNCCCN1c2ccccc2CCc2ccccc21 [DESIPRAMINE]	2.4 µM	80.3%
CC(=O)Nc1ccc(OCC(O)CNC(C)C)cc1 (stereo not given)	–	8.4%
COc1cccc(OC)c1OCCNCC1=COc2ccccc2O1	2.4 µM	67.7%
CC[C@@H]1CN2CC[C@@H]1C[C@H]2[C@H](O)c1ccnc2ccc(OCCC(C)C)cc12	0.74 µM	95.7%
CC(C)(C)NC[C@H](O)COc1nsnc1N1CCOCC1	–	8%
COC(=O)[C@@H]1[C@H]2C[C@H]3c4[nH]c5ccccc5c4CCN3C[C@@H]2CC[C@@H]1O [YOHIMBINE]	33 µM	25.6%
CN(C(=O)CN(CCO)CC(=O)N(C)C(C)(C)Cc1ccccc1)C(C)(C)Cc1ccccc1 [OXETHAZAINE]	2.3 µM	83.9%
Cn1c(=O)c2nc(-c3ccccc3)[nH]c2n(C)c1=O	–	10.9%
C=C(c1ccc(Oc2cccc3ccccc23)cc1)C1COC2(CCCCC2)OO1.Cl (stereo not given)	7 µM	68.3%
CC1CCCCN1CCCOC(=O)c1ccc(OC2CCCCC2)cc1 (stereo not given) [CYCLOMETHYCAINE]	2 µM	81.9%
CCCCN1CCCCC1C(=O)Nc1c(C)cccc1C (stereo not given) [BUPIVACAINE]	–	63.4%
CCN(CC)CCOC(=O)c1ccc(N)cc1 [PROCAINE]	110 µM	47.3%
CC(C)NCC(O)c1ccc(Cl)c(Cl)c1 (stereo not given) [DICHLOROISOPROTERENOL]	< 10 µM	53%
CCCOc1ccc(C(=O)OCCN(CC)CC)cc1N [PROPARACAINE]	1.9 µM	79.9%
OCCN1CCN(CCCN2c3ccccc3Sc3ccc(C(F)(F)F)cc32)CC1 [FLUPHENAZINE]	3.7 µM	72.8%

Compound	IC50 [1]	inhibition [2]
CN(C)CCCN1c2ccccc2CCc2ccc(Cl)cc21 [CLOMIPRAMINE]	< 10 µM	76.6%
OC(c1ccccc1)(c1ccccc1)C1CCNCC1 [AZACYCLONOL]	14 µM	43.2%
CC[N+](CC)(CC)CC(=O)Nc1c(C)cccc1C.[Cl-]	97 µM	52.4%
CCN(CC)CCCN1C(=O)CC2(CCCc3ccccc32)C1=O (racemic; form 1) [listing 1 of 2 here]	–	25.7%
COC(=O)C1=C(C)NC(C)=C(C(=O)OC)C1c1ccccc1[N+](=O)[O-]	–	26%
COc1ccc(OC)c(C(O)C(C)NC(C)(C)C)c1 (stereo not given) [BUTOXAMINE]	27 µM	26.8%
COC(=O)[C@H]1[C@H]2C[C@@H]3c4[nH]c5cc(OC)ccc5c4CCN3C[C@H]2C[C@@H](OC(=O)c2cc(OC)c(OC)c(OC)c2)[C@@H]1OC [RESERPINE]	1.6 µM	100%
CC(C)(C)NCC(CO)O/N=C1\c2ccccc2C2C=CC=CC12 (stereo not given)	3.7 µM	72.5%
O=C(CCCN1CCC(O)(c2ccc(Cl)cc2)CC1)c1ccc(F)cc1	–	85.5%
OC(CCN1CCCCC1)(c1ccccc1)C1CC2C=CC1C2 (stereo not given) [BIPERIDEN]	< 10 µM	62.9%
COC(=O)[C@H]1[C@H]2C[C@H]3c4[nH]c5ccccc5c4CCN3C[C@@H]2CC[C@@H]1O	–	33.7%
CCCCOc1cc(C(=O)NCCN(CC)CC)c2ccccc2n1 [DIBUCAINE]	–	77.4%
COc1cc2c3cc1Oc1cc(ccc1O)C[C@@H]1c4c(cc(OC)c(O)c4Oc4ccc(cc4)C[C@@H]3N(C)CC2)CC[N+]1(C)C	–	3%
C=C[C@H]1CN2CC[C@H]1C[C@H]2[C@H](O)c1ccnc2ccc(OC)cc12 [QUININE]	–	69.3%
CCC1(c2ccccc2)C(=O)NC(=O)NC1=O	–	5.4%
COc1ccc(CCN(C)CCCC(C#N)(c2ccc(OC)c(OC)c2)C(C)C)cc1OC (stereo not given)	–	74.4%
CN(C)CCCn1c2c(c3ccccc31)CCCCCC2	–	42.4%
COc1ccc(CCN(C)CCCC2(c3ccc(OC)c(OC)c3)S(=O)(=O)CCCS2(=O)=O)cc1OC	13.5 µM	–
CN(C)C/C=C(/c1ccc(Br)cc1)c1cccnc1	–	34.6%
CCN(CC)CCCN1C(=O)CC2(CCCc3ccccc32)C1=O (racemic; form 2) [listing 1 of 2 here]	12 µM	–
O=C(O)c1ccccc1Nc1cccc(C(F)(F)F)c1	–	26.7%
CC(C)[C@@]1(O)[C@@H](OC(=O)c2cc[nH]c2)[C@@]2(O)[C@]3(C)C[C@@]4(O)O[C@@]5([C@H](O)[C@@H](C)CC[C@]35O)[C@@]2(O)[C@@]41C	–	0%

Compound	IC50 [1]	inhibition [2]
CC/C(=C(/CC)c1ccc(O)cc1)c1ccc(O)cc1	–	30.1%
CCN(CC)CCCN1C(=O)CC2(CCCc3ccccc32)C1=O (racemic; form 1) [listing 2 of 2 here]	94 µM	–
C=CCC1(C(C)CCC)C(=O)NC(=O)NC1=O (stereo not given)	–	4.4%
NCC(CC(=O)O)c1ccc(Cl)cc1 (stereo not given)	–	6.2%
CC(C)NCC(O)c1ccc([N+](=O)[O-])cc1 (stereo not given)	–	7.9%
CCCCOc1cc(CC2CNC(=O)N2)ccc1OC (stereo not given)	–	14.1%
NC(=O)N1c2ccccc2C=Cc2ccccc21	–	1.6%
O=C1NC(=O)C(c2ccccc2)(c2ccccc2)N1	–	18.5%
O=C(CCCN1CCC2(CC1)C(=O)NCN2c1ccccc1)c1ccc(F)cc1 [SPIPERONE]	–	98.7%
NC[C@H](CC(=O)O)c1ccc(Cl)cc1	–	11.7%
CC[N+](CC)(CC)CC	–	1.4%
COc1ccc(CN(CCN(C)C)c2ccccn2)cc1	–	44.5%
C[C@H](Cc1ccccc1)Nc1ncnc2c1ncn2[C@@H]1O[C@H](CO)[C@@H](O)[C@H]1O	–	2.2%
(-)-BUTACLAMOL	–	87.1%
CCCN(CC)C(CC)C(=O)Nc1c(C)cccc1C (stereo not given) [ETIDOCAINE]	–	73.2%
CC(C)CCC[C@@H](C)[C@H]1CC[C@H]2[C@@H]3CC=C4C[C@@H](O)CC[C@]4(C)[C@H]3CC[C@]12C	–	3.3%
CCN(CC)CCCN1C(=O)CC2(CCCc3ccccc32)C1=O (racemic; form 2) [listing 2 of 2 here]	–	54.1%
COc1cc2c(cc1OC)-c1c/c(=N\c3c(C)cc(C)cc3C)n(C)c(=O)n1CC2	–	17.4%
COC(=O)[C@H]1[C@H]2C[C@H]3c4[nH]c5ccccc5c4CCN3C[C@H]2CC[C@@H]1O	–	13.1%
COc1ccc2c3c1O[C@H]1[C@@H](O)C=C[C@H]4[C@@H](C2)N(C)CC[C@@]341	–	5.7%
CC(C)(C)NCC(O)COc1cccc2c1CCCC2=O (stereo not given)	–	27.3%
C=C[C@H]1CN2CC[C@H]1C[C@@H]2[C@@H](O)c1ccnc2ccc(OC)cc12 [QUINIDINE]	–	74.1%
